Earlier results on 1 compound are cited in patent publication US20220257469A1, “PHARMACEUTICAL UNIT DOSE SYSTEMS FOR ORAL DRY SOLUTION AND SUSPENSION” (Brillian Pharma Inc., priority 2019, published 2022).

The conditions of this series: liquid suspension, in five days, not refrigerated.

Regarding `O=C(O)[C@H]1/C(=C/CO)O[C@@H]2CC(=O)N21` [Clavulanic acid], the loss of potency is on record as 30-40%.
